From patent publication US7196110B2, “N-substituted tricyclic 3-aminopyrazoles as inhibitors for the treatment of cell proliferative disorders” (Janssen Phamaceutica N.V., priority 2002, dated 2007)

What was measured:
[1] = molecular target: c-Abl kinase (Abelson murine leukemia virus, UniProt P00521); assay: Inhibition of c-Abl kinase activity (cell-free, Abl peptide substrate, 33P Flashplate); assay type: biochemical; conditions: IC50 for the c-Abl kinase activity
[2] = molecular target: T1, PDGF-receptor beta enzyme comprising the tyrosine kinase domain (Homo sapiens, UniProt P09619); assay: Inhibition of PDGF-receptor kinase activity (cell-free, PLC1 peptide, 33P Flashplate); assay type: biochemical; conditions: PDGF-R kinase activity; for inhibition at 10 µM: compound at 10 uM, read-out: Percent Inhibition @ 10 uM; for IC50: read-out: IC50
T1 construct: from amino acid 545 to 1106 of GenBank Access NO: AAA36427
T1 sequence (P09619 545-1106): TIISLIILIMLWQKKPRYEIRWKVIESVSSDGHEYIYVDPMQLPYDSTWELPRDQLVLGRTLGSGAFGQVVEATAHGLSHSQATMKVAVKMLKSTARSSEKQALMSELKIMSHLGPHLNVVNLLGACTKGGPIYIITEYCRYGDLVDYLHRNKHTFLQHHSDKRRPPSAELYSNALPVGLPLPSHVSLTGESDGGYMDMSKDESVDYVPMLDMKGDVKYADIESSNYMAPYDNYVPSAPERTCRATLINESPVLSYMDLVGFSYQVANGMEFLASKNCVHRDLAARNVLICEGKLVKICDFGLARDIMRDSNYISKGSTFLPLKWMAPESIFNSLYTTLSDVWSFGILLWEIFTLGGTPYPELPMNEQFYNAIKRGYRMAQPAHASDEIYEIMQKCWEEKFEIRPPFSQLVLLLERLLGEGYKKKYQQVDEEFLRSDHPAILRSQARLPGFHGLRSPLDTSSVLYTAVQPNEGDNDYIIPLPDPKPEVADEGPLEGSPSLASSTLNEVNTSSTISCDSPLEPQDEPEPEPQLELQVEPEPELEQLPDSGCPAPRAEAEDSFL
Summary of the method: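 Recombinant kinase domain (aa 545–1106) phosphorylated a biotinylated PLC1 peptide with 5 μM ATP plus 33P-γ-ATP, in Tris pH 8, MgCl2, Na3VO4 and 1 mM DTT, for 60 min at 30 °C. Retained 33P was counted after washing. IC50 is the concentration halving activity versus no-inhibitor reactions.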

Chain of c-Abl kinase (P00521 115-385): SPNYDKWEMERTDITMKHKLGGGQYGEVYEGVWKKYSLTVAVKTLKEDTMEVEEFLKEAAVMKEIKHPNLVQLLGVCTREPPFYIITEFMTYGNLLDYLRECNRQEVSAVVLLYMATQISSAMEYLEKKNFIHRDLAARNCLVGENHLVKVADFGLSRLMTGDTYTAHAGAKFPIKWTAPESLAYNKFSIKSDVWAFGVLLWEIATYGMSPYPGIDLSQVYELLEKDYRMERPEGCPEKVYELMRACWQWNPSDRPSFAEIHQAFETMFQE

| SMILES | IC50 [1] [nM] | inhibition at 10 µM [2] [%] | IC50 [2] [nM] |
| --- | --- | --- | --- |
| Fc1ccc2c(c1)Cc1c-2n[nH]c1Nc1ccc(F)c(Cl)c1 [Compound 202, (3-Chloro-4-fluoro-phenyl)-(6-fluoro-2,4-dihydro-indeno[1,2-c]pyrazol-3-yl)-amine] | 2650 | 77 | 12.4 |
| COc1cccc(Nc2[nH]nc3c2Cc2cc(F)c(OC)cc2-3)c1 [Compound 360, (6-Fluoro-7-methoxy-2,4-dihydro-indeno[1,2-c]pyrazol-3-yl)-(3-methoxy-phenyl)-amine] | 77 | 98 | 7.5 |
| COc1cccc(Nc2[nH]nc3c2Cc2cc(Cl)ccc2-3)c1 [Compound 190, (6-Chloro-2,4-dihydro-indeno[1,2-c]pyrazol-3-yl)-(3-methoxy-phenyl)-amine] | 69 | 80 | 40 |
| CN1CCN(c2ccc3c(c2)Cc2c-3n[nH]c2Nc2cccc(Cl)c2)CC1 [Compound 124, (3-Chloro-phenyl)-[6-(4-methyl-piperazin-1-yl)-2,4-dihydro-indeno[1,2-c]pyrazol-3-yl]-amine] | 1850 | 94 | 16.3 |
| COc1cc2c(cc1OCCCN1CCCC1)Cc1c-2n[nH]c1Nc1ccc(F)c(Cl)c1 [Compound 181, (3-Chloro-4-fluoro-phenyl)-[7-methoxy-6-(3-pyrrolidin-1-yl-propoxy)-2,4-dihydro-indeno[1,2-c]pyrazol-3-yl]-amine] | 56 | 74.5 | 15.4 |
| CC(O)c1cccc(Nc2[nH]nc3c2Cc2cc(F)ccc2-3)c1 (stereo not drawn) [Compound 289, 1-[3-(6-Fluoro-2,4-dihydro-indeno[1,2-c]pyrazol-3-ylamino)-phenyl]-ethanol] | 2400 | 93.5 | 18.5 |
| CCOc1cccc(Nc2[nH]nc3c2Cc2cc(OCC(O)CO)c(OC)cc2-3)c1 (stereo not drawn) [Compound 379, 3-[3-(3-Ethoxy-phenylamino)-7-methoxy-2,4-dihydro-indeno[1,2-c]pyrazol-6-yloxy]-propane-1,2-diol] | 14 | 100 | 8.12 |
| Clc1cccc(Cl)c1CNc1[nH]nc2c1Cc1c(OCCCN3CCOCC3)cccc1-2 [Compound 415, (2,6-Dichloro-benzyl)-[5-(3-morpholin-4-yl-propoxy)-2,4-dihydro-indeno[1,2-c]pyrazol-3-yl]-amine] | 219 | 98 | 25.8 |
| COCCCOc1cc2c(cc1OCCCOC)-c1n[nH]c(Nc3cccc(F)c3)c1C2 [Compound 283, [6,7-Bis-(3-methoxy-propoxy)-2,4-dihydroindeno[1,2-c]pyrazol-3-yl]-(3-fluoro-phenyl)-amine] | 340 | 86.5 | 4.36 |
| COCCCOc1cc2c(cc1OCCCOC)-c1n[nH]c(Nc3ccc(F)c(Cl)c3)c1C2 [Compound 287, [6,7-Bis-(3-methoxy-propoxy)-2,4-dihydro-indeno[1,2-c]pyrazol-3-yl]-(3-Chloro-4-fluoro-phenyl)-amine] | 3450 | 92.5 | 26.2 |
| COc1cc2c(cc1OC)-c1c(c(Nc3cccc(F)c3)nn1C(=O)CCC(=O)O)C2 [Compound 466, 4-[3-(3-Fluoro-phenylamino)-6,7-dimethoxy-4H-indeno[1,2-c]pyrazol-1-yl]-4-oxo-butyric acid] | 191 | 96 | 31.1 |
| COc1cc2c(cc1OCCCN1CCCC1)Cc1c-2n[nH]c1Nc1cccc(F)c1 [Compound 180, (3-Fluoro-phenyl)-[7-methoxy-6-(3-pyrrolidin-1-yl-propoxy)-2,4-dihydro-indeno[1,2-c]pyrazol-3-yl]-amine] | 82 | 98.5 | 13.3 |
| COc1cc2c(cc1OC)-c1n[nH]c(Nc3cccc(O)c3)c1C2 [Compound 38, 3-(6,7-Dimethoxy-2,4-dihydro-indeno[1,2-c]pyrazol-3-ylamino)-phenol] | 2 | 74 | 31 |
